The text below walks through data of patent US20240299568A1, “BONE-SPECIFIC DELIVERY OF POLYPEPTIDES” (William Marsh Rice University, priority 2021, published 2024).

The subject of the test is MDA-MB-361 cells. The test can be described thus: MDA-MB-361 bone micrometastasis xenograft (IIA injection).
The mark [1] stands for this setting: significance vs PBS group, end of experiment.

In the case of `NCCCC(O)(P(=O)(O)O)P(=O)(O)O` [ALN, Alendronate], the “bone mass loss of femurs (microCT)” value (82 days after tumor implantation) is “significant losses of bone mass”. Also, the “development of micrometastases / lesions (BLI imaging)” value (ALN 10 μg/kg, Tras, Tras-ALN 1 mg/kg, retro-orbital twice a week) is “accumulated rapidly”. Further, the “tumor burden, histomorphometric analysis of tibiae and femurs” value (H&E bone sections) is “high tumor burdens”. The “BLI Fold-increase” value (significance vs PBS group, BLI of day 87/BLI of day 6, two-way ANOVA) is “NS (NS represents P > 0.05)”. The “Osteoclast activity Osteoclast number” value (significance vs PBS group, TRAP-stained tibia/femur sections, end of experiment) was “* (* P < 0.05)”. Moreover, under setting [1], the “Osteoclast activity Serum Calcium” value is “NS (NS represents P > 0.05)” and the “Osteoclast activity Serum TRACP 5b” value is given as “NS (NS represents P > 0.05)”. Also, the Survival entry (significance vs PBS group, endpoint BLI intensity over 10^7, log-rank test) is “NS (NS represents P > 0.05)”. Also, the “BLI Progression” value (significance vs PBS group, whole-body BLI over the course of the experiment, two-way ANOVA) is recorded as “NS (NS represents P > 0.05)”.
